For assay [1], the target named is TASK3 (K2P9.1) (Homo sapiens, UniProt Q9NPC2). On the set-up: method as in Cao et al., 2010. Particulars: ref Cao et al., 2010; cited from earlier work.
The subject of assay [2] is TREK1. On the set-up: method as in Cao et al., 2010. Particulars: ref Cao et al., 2010; read-out: EC50 in electrophysiological experiments; cited from earlier work.
The target of assay [3] is BK (KCa1.1) (Homo sapiens, UniProt Q12791). The assay can be described thus: BL-1249 selectivity (manual patch-clamp and flux assay platforms), BK. Particulars: 10 μM. In kind it is cell-based. A general note: In patch-clamp work, channel activity is measured electrically.
For assay [4], the target named is Kv7.3(KCNQ3) (Homo sapiens, UniProt O43525). The assay can be described thus: BL-1249 selectivity (manual patch-clamp and flux assay platforms), Kv7.3. Particulars: 10 μM. It is filed as cell-based.
In assay [5] the target is Kv7.2 (KCNQ2) (Homo sapiens, UniProt O43526). The assay can be described thus: BL-1249 selectivity (manual patch-clamp and flux assay platforms), Kv7.2. It is filed as cell-based. Particulars: 10 μM.
For assay [6], the target named is T1, hTRAAK (Homo sapiens, UniProt Q9NYG8).
T1 construct: expressed in transfected cells; host or cells: tsA-201, transient, pcDNA3.1 vector
T1 sequence (Q9NYG8 1-393): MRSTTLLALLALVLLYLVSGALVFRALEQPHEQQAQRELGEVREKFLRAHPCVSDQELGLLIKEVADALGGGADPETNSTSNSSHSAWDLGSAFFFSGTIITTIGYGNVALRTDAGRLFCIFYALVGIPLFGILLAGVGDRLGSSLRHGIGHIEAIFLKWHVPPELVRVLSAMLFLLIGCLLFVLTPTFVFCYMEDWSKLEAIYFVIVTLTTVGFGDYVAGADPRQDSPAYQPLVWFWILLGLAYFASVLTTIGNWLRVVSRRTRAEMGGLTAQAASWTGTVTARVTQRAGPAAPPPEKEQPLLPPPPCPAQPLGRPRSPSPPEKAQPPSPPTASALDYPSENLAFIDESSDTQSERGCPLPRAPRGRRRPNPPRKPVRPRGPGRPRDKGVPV
The assay can be described thus: Whole-cell patch clamp, transiently transfected tsA-201 cells, TRAAK. In kind it is cell-based. Particulars: Supporting Information Figure S2. The procedure:
Recordings of hTREK1, hTREK1∆N, hTREK2, hTRAAK and […] currents from transiently transfected tsA‐201 cells were performed using methods as described in Veale and Mathie (2016). Briefly, the pcDNA3.1 vector was cloned with the gene of interest, and these vectors and a similar vector containing GFP were incorporated into the tsA201 cells (0.5 μg per well) using the calcium phosphate method. The cells were incubated for 6–12 h at 37°C in […] and 5% carbon dioxide. Cells were then washed using a PBS solution and used for experiments after 24 h.
Currents were recorded using whole‐cell patch‐clamp using an Axopatch 1D amplifier. Cells were placed in a recording chamber filled with an external medium composed of 145 mM, NaCl, 2.5 mM KCl, 3 mM MgCl2, 1 mM CaCl2 and 10 mM HEPES (pH to 7.4, using NaOH). The internal medium used in the glass pipette comprised 150 mM KCl, 3 mM MgCl2, 5 mM (or 0.1 mM) EGTA and 10 mM HEPES (pH to 7.4, using KOH). GI‐530159 was applied by bath perfusion. Currents were recorded and analysed using pCLAMP 10.2 software Microsoft Excel. The voltage protocol used for recording current through K2P channels was as previously described (Veale and Mathie, 2016). For analysis, we measured the current difference between the −80 and −40 mV steps.

The target of assay [7] is T2, hTREK1 (Homo sapiens, UniProt O95069).
T2 sequence (O95069 1-426): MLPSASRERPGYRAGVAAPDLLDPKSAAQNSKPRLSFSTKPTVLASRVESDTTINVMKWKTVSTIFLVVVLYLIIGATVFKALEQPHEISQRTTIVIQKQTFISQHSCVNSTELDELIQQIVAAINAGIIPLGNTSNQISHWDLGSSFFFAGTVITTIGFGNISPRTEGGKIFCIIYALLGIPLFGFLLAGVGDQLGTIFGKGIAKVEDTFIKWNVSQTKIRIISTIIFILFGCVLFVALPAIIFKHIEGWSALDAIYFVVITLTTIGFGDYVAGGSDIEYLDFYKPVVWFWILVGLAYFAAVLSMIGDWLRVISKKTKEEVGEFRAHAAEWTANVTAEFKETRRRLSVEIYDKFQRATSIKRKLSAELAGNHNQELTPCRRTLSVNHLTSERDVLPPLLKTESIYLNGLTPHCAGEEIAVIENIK
The assay is described as follows: Manual whole-cell patch clamp, HEK293 cells stably expressing TREK1. It is filed as cell-based. Set-up: expressed in transfected cells. Particulars: 100 μM; n = 7. The procedure: Electrophysiological studies were performed on CHO or HEK293 cells, stably expressing human recombinant TREK1; tsA‐201 cells transiently transfected with human recombinant K2P channels and acutely dissociated rat DRG cells, all at room temperature (22–24°C).
Studies were performed using a conventional patch clamp and Multiclamp 700B and pCLAMP software (Molecular Devices, Sunnyvale, CA, USA). For conventional manual patch clamp, glass coverslips containing HEK293 cells were perfused with an extracellular solution (ECS) containing (in mM): 135 NaCl, 4.7 KCl, 1 CaCl2, 1 MgCl2, 10 HEPES and 10 glucose, pH 7.4, with NaOH (310 mOsmol·L^−1). The patch pipette was filled with (in mM): 130 KCl, 1 MgCl2, 5 MgATP, 10 HEPES and 10 BAPTA, pH adjusted to 7.3 with KOH (290 mOsmol·L^−1).

For assay [8], the target named is NaV1.7 (Homo sapiens, UniProt Q15858). The assay can be described thus: BL-1249 selectivity (manual patch-clamp and flux assay platforms), NaV1.7. In kind it is cell-based. Particulars: 10 μM.
Assay [9] relates to Na current in DRG neurons. The assay is described as follows: Voltage-clamp recordings from DRG neurons, Na current. It is filed as cell-based, rat. The procedure: Acutely dissociated rat DRG cells were obtained according to a previously described protocol (Passmore, 2005). All animal care and experimental procedures complied with guidelines and were approved by the Pfizer Neusentis Institutional Animal Use and Care Committee. Animal studies are reported in compliance with the ARRIVE guidelines (Kilkenny et al., 2010; McGrath and Lilley, 2015).Cells were plated on coated coverslips (poly‐D‐lysine/laminin, BD Biosciences, San Jose, CA, USA) prior to patching on the same day. Cells were perfused with an extracellular solution containing (in mM): 135 NaCl, 4.7 KCl, 1 CaCl2, 1 MgCl2, 10 HEPES and 10 glucose, pH 7.4, with NaOH (310 mOsmol·L^−1). Pipette solution contained (in mM): 130 KCl, 1 MgCl2, 5 MgATP, 10 HEPES and 5 EGTA, pH adjusted to 7.3 with KOH (290 mOsmol·L^−1). For whole‐cell recordings, currents were filtered at 2 kHz and sampled at 5 kHz. Series resistance was compensated for by up to 80%. For current‐clamp recordings, action potential firing and resting membrane potential (RMP) were recorded from small cells ([…]). GI‐530159 was dissolved in 0.3% DMSO as 10 mM stock and applied in the vicinity of cells using a gravity fed perfusion system (MSC‐200, Bio‐Logic SAS, Claix, France).

Structures are written as SMILES.

Sequence of BK (KCa1.1) (Q12791 whole entry, species assumed): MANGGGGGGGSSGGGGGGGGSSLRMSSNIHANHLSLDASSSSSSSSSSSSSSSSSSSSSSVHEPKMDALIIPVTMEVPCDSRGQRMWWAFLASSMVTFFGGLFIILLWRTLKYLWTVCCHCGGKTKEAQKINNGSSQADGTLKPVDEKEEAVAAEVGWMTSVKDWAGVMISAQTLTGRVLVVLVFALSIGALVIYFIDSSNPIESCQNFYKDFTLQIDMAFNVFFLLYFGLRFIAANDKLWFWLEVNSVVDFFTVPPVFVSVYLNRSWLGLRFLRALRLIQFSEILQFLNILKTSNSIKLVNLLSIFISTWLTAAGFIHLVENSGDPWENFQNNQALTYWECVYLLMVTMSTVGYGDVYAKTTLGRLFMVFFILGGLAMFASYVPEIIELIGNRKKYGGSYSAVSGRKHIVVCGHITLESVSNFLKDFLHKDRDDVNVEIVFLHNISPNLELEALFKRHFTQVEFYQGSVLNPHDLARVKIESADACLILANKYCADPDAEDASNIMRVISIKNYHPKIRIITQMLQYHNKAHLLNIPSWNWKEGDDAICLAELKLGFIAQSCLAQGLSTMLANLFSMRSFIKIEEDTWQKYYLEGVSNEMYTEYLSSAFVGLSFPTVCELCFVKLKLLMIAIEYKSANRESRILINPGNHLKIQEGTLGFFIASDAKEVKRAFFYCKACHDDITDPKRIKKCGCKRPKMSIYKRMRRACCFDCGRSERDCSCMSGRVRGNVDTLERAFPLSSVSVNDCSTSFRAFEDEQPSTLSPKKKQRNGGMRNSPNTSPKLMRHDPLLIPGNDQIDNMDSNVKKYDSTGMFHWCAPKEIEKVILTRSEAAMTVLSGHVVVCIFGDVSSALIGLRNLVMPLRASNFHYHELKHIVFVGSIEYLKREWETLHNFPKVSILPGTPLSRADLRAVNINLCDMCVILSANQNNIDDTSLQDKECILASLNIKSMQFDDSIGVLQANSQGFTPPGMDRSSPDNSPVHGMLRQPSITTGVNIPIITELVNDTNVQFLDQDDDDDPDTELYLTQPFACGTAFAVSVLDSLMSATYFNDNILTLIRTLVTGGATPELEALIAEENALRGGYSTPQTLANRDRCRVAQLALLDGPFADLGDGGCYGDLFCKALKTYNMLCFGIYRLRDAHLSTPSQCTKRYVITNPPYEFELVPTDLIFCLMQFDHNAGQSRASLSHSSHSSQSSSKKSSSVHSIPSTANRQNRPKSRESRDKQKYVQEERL
Sequence of NaV1.7 (Q15858 whole entry): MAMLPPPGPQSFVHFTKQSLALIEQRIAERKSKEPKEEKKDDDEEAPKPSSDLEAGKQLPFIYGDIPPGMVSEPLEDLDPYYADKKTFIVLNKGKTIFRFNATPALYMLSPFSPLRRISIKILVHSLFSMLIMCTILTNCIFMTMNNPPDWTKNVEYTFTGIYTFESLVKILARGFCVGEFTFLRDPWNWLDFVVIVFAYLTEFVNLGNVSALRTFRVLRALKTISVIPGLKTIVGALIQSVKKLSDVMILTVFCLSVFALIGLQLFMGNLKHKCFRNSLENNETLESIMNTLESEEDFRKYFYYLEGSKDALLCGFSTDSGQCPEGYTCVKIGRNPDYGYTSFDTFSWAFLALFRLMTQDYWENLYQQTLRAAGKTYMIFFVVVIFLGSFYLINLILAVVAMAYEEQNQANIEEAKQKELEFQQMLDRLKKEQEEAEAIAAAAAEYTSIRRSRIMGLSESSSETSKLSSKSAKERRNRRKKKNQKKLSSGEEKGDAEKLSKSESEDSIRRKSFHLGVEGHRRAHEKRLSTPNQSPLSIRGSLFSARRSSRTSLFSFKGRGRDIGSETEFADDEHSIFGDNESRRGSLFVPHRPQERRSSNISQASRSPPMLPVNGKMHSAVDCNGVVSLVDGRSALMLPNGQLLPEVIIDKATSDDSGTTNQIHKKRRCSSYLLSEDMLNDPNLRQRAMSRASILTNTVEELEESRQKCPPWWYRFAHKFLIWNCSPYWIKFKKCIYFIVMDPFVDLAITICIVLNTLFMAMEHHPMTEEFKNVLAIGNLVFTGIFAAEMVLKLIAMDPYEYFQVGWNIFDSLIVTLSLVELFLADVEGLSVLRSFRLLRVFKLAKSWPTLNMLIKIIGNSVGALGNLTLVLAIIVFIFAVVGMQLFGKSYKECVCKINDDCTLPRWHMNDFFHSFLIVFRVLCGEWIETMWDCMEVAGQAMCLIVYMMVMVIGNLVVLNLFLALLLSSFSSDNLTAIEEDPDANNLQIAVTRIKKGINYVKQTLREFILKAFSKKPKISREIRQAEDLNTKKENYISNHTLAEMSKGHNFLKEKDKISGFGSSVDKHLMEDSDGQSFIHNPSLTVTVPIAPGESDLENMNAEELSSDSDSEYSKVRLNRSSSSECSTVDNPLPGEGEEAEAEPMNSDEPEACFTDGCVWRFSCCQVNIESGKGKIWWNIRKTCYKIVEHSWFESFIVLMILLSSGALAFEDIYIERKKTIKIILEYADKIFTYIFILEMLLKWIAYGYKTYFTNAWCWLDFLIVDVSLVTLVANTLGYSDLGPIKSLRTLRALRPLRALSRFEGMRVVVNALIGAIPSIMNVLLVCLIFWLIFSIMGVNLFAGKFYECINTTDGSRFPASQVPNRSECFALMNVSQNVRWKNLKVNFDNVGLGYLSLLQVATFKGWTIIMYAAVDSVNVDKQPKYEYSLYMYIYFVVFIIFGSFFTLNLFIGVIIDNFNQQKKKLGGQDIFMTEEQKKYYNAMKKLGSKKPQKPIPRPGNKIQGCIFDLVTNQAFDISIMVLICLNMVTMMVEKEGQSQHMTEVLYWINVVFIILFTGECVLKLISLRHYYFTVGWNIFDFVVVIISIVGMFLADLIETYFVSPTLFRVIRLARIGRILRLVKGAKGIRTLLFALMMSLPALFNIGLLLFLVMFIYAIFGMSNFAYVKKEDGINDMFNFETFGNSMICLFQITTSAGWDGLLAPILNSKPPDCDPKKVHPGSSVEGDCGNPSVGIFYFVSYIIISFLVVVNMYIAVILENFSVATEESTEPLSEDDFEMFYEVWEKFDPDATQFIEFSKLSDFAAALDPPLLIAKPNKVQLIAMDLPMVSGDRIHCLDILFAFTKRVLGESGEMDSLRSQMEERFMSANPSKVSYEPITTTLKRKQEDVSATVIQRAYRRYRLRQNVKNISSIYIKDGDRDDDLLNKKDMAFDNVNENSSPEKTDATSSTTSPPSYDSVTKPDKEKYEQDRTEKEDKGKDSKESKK
Sequence of TASK3 (K2P9.1) (Q9NPC2 whole entry, species assumed): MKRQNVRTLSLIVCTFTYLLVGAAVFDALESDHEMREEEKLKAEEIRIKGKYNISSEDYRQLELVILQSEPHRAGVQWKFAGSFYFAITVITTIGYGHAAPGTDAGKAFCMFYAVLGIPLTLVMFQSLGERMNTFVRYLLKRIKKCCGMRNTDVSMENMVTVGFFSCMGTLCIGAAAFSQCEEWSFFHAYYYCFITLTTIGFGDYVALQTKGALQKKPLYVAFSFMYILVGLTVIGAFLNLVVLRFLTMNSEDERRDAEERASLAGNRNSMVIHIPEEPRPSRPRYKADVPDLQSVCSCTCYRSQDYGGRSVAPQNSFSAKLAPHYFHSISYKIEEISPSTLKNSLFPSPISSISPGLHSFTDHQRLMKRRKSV

Turning to `c1ccc(-c2nnn[nH]2)c(Nc2cccc3c2CCCC3)c1` [BL‐1249, (5,6,7,8‐tetrahydro‐naphthalen‐1‐yl)‐[2‐(1H‐tetrazol‐5‐yl)‐phenyl]‐amine], the “effect on TASK3 (K2P9.1) channels” value in assay [1] was “strong activator”. In assay [2], the EC50 is around 1000 nM. Further, in [3], the “effect on BK (KCa1.1)” value is “significant inhibition”. Moreover, the “effect on Kv7.3 (KCNQ3)” value in assay [4] is given as “significant inhibition”. Also, the “effect on Kv7.2 (KCNQ2)” value in assay [5] was “significant inhibition”. Also, the “effect on TRAAK channels” value in assay [6] was “clear enhancement”. Moreover, the maximal enhanced current in [7] is listed as 7.2 ± 1.3 nA. In addition, the “effect on NaV1.7” value in assay [8] is on record as “significant inhibition”. Besides, in [9], the “block of Na current in DRG neurons” value was “clear block”.

A word on the EC50: it is the concentration that produces a half-maximal response.

These data come from publication PMC5980259, “GI‐530159, a novel, selective, mechanosensitive two‐pore‐domain potassium (K2P) channel opener, reduces rat dorsal root ganglion neuron excitability” (British Journal of Pharmacology, 2017).
